Source: PubChem BioAssay (NCI)
“And” between values parts separate entries of the source, which are not always exact repeats. Identical values can stand only once.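 Cultured in 96-well plates, cells were exposed to test compound for 48 hours across five concentrations. GI50: concentration for 50% inhibition of growth. The concentration for full growth arrest is given as TGI.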

Tests used:
Assay in all cases: NCI tumour cell line growth inhibition, 48 h
DLD-1 colon = system: DLD-1 colon
DMS 114 small cell lung = system: DMS 114 small cell lung
DMS 273 small cell lung = system: DMS 273 small cell lung
HOP-18 NSCLC = system: HOP-18 NSCLC
KM20L2 colon = system: KM20L2 colon
LXFL 529 NSCLC = system: LXFL 529 NSCLC
RXF-631 renal = system: RXF-631 renal
SNB-78 CNS = system: SNB-78 CNS
MDA-N = system: MDA-N
SN12K1 renal = system: SN12K1 renal
P388 leukemia = system: P388 leukemia

| Structure (SMILES) | TGI (DLD-1 colon) | TGI (DMS 114 small cell lung) | TGI (DMS 273 small cell lung) | TGI (HOP-18 NSCLC) | TGI (KM20L2 colon) [µM] | TGI (LXFL 529 NSCLC) | TGI (RXF-631 renal) [µM] | TGI (SNB-78 CNS) | TGI (MDA-N) | other results |
| --- | --- | --- | --- | --- | --- | --- | --- | --- | --- | --- |
| Cc1cc(O)c2c(c1)C(=O)c1cc(O)cc(O)c1C2=O | > 100 µM | > 100 µM | 62.2 µM | 37 µM | > 100 | 85.3 µM | > 100 | > 100 µM |  |  |
| C#CCN1CCN(C(=S)N/N=C(\C)c2ccccn2)CC1 | 6.58 µM |  | 4.57 µM | 10.6 µM | 15 | 18.2 µM |  | 21.7 µM | 3.76 µM and 8.58 µM | GI50 (DLD-1 colon): 0.00155 µM; GI50 (DMS 273 small cell lung): 0.0092 µM; GI50 (KM20L2 colon): < 0.001 µM; TGI (SN12K1 renal): 2.22 µM |
| O=C(O)c1cc2ccccc2c(N=Nc2c([N+](=O)[O-])cc([N+](=O)[O-])cc2S(=O)(=O)O)c1O |  |  |  |  |  |  |  |  | > 100 µM |  |
| N/N=C1\c2ccccc2C2/C(=N\N)c3ccccc3C12 (stereo unspecified) | > 100 µM | > 100 µM | > 100 µM | > 100 µM | > 100 | > 100 µM |  |  |  |  |
| CC1C=C(OC(=O)c2ccccc2)C(=O)C(n2cc(F)c(=O)n(C(=O)c3ccccc3)c2=O)O1 (stereo unspecified) | > 100 µM | > 100 µM | > 100 µM | > 100 µM | 81.9 |  | > 100 | > 100 µM |  |  |
| CCOc1ccccc1NC(=O)CCc1nnc2s/c(=C\CCc3ccccc3)c(=O)n12 | > 100 µM | > 100 µM | > 100 µM |  | > 100 | > 100 µM |  | > 100 µM |  |  |
| CCc1cccc(CC)c1NC(=S)NC(=O)c1ccc(Br)cc1 | > 100 µM | > 100 µM | > 100 µM | > 100 µM | > 100 | > 100 µM | > 100 | > 100 µM | > 100 µM |  |
| CC1CCCC(C(O)CC2CC(=O)N(c3ccccc3)C(=O)C2)C1=O (stereo unspecified) | > 100 µM | > 100 µM | > 100 µM | > 100 µM | > 100 | > 100 µM |  | > 100 µM |  |  |
| CCC(C(=O)[O-])C(=O)[O-].CCC(C(=O)[O-])C(=O)[O-].N.N.NCCCCCN.[Pt+4].[Pt+4] | > 100 µM |  | > 100 µM | > 100 µM | > 100 | > 100 µM |  | > 100 µM |  | GI50 (DLD-1 colon): > 100 µM; GI50 (DMS 273 small cell lung): 95.8 µM; GI50 (HOP-18 NSCLC): > 100 µM; GI50 (KM20L2 colon): > 100 µM; GI50 (LXFL 529 NSCLC): > 100 µM; GI50 (SNB-78 CNS): > 100 µM |
| FC(F)(F)c1ccc(C=NC23CC4CC(CC(C4)C2)C3)cc1 |  | > 100 µM | > 100 µM |  | > 100 |  |  | > 100 µM |  |  |
| C=CCNC1=C(C(=O)OCC)C(=O)CO1 | > 100 µM | > 100 µM | > 100 µM |  | > 100 | > 100 µM | > 100 | > 100 µM |  |  |
| C(CCc1nnc2c(n1)CCCC2)Cc1nnc2c(n1)CCCC2 |  |  |  |  |  |  |  |  | > 100 µM |  |
| Cc1cc(=O)oc2cc(OC(=O)Nc3ccc(Cl)c(Cl)c3)ccc12 |  |  |  |  |  |  |  |  | 54.7 µM |  |
| O=C(O)CCC1COc2ccccc2O1 (stereo unspecified) |  |  |  |  |  |  |  |  | > 10 µM |  |
| O=C(CC/C(C/C(=N/O)c1ccc(F)cc1)=N/O)N(Cc1ccccc1)Cc1ccccc1 | > 100 µM | > 100 µM | > 100 µM | > 100 µM | > 100 | > 100 µM |  |  |  |  |
| Cc1ccc(S(=O)(=O)N2CCC3(C(/C=C/c4ccccc4)=Nc4ccccc43)C2c2ccccc2)cc1 (stereo unspecified) | > 100 µM | > 100 µM | > 100 µM |  | > 100 | > 100 µM |  | > 100 µM |  |  |
| C=C(CN(CC(=C)C(=O)c1ccccc1)C(C)(C)C)C(=O)c1ccccc1 | 10.2 µM | 33.5 µM | 32.4 µM | 14.3 µM | 37.5 | 10.1 µM |  | 53.7 µM |  |  |
| Cn1cc2c(n1)c(N/N=C/c1ccccc1)nn1nnnc21 | > 100 µM | > 100 µM | > 100 µM | > 100 µM | > 100 | > 100 µM | > 100 | > 100 µM |  |  |
| NC(=O)c1[nH]nc(C2OC(CO)C(O)C2O)c1O (stereo unspecified) | 447 µM | 858 µM | 210 µM | 812 µM | > 5000 |  |  | 2820 µM | 923 µM | TGI (P388 leukemia): 802 µM; TGI (SN12K1 renal): 663 µM |
| CC(=O)OCC1OC(OC2CC3C(C)(C)C(OC(C)=O)CC[C@]3(C)C3CCC45CC4(CC[C@H]5C(C)CC(O)C4OC4(C)C)[C@]23C)C(O)C(O)C1O (stereo partly specified) | 4.4 µM and 4.77 µM | 5.46 µM and 4.32 µM | 5.76 µM and 4.37 µM | 8.91 µM and 5.96 µM |  | 10.6 µM and 15.2 µM | 9.55 | 13.3 µM and 16.2 µM |  | GI50 (DLD-1 colon): 2.38 µM; GI50 (KM20L2 colon): > 60 µM; GI50 (LXFL 529 NSCLC): 3.74 µM; GI50 (SNB-78 CNS): 3.96 µM |

| Structure (SMILES) | TGI (DLD-1 colon) | TGI (DMS 114 small cell lung) | TGI (DMS 273 small cell lung) | TGI (HOP-18 NSCLC) | TGI (KM20L2 colon) [µM] | TGI (LXFL 529 NSCLC) | TGI (RXF-631 renal) [µM] | TGI (SNB-78 CNS) | TGI (MDA-N) | other results |
| --- | --- | --- | --- | --- | --- | --- | --- | --- | --- | --- |
| CN(C)c1ccc(/C=C2\CNC/C(=C\c3ccc(N(C)C)cc3)C2=O)cc1 | 46.2 µM | 34.7 µM | 27.6 µM | 36.8 µM | > 100 | 98.2 µM | 60.7 | > 100 µM |  |  |
| O=C1C=CC(=O)C1(Br)Br |  |  |  |  |  |  |  |  | 27.5 µM |  |
| NC(=O)c1csc(C2C=CC(CO)O2)n1 (stereo unspecified) |  | > 100 µM | > 100 µM | > 100 µM | > 100 | > 100 µM | > 100 | > 100 µM |  |  |
| C/C(=N\NC(=O)CC(=O)Nc1ccc(Cl)cc1)c1cc2ccccc2oc1=O | > 100 µM | > 100 µM | > 100 µM | > 100 µM | > 100 |  |  |  |  |  |
| COc1cc(-c2oc3c(OC)c(OC)cc(O)c3c(=O)c2OC)ccc1O | > 100 µM | > 100 µM |  |  | > 100 | > 100 µM | > 100 | > 100 µM | > 50 µM |  |
| CCC(=O)OC1CCn2c1nc1c2C(=O)C(C)=C(N2CC2)C1=O (stereo unspecified) | 1.58 µM | 0.522 µM | 0.121 µM | 0.228 µM | 0.831 | 0.35 µM |  | 1.41 µM | 0.181 µM |  |
| O=C([O-])c1ccc2c(c1)-c1nc-2nc2[n-]c(nc3nc(nc4[n-]c(n1)c1ccc(C(=O)[O-])cc41)-c1cc(C(=O)[O-])ccc1-3)c1ccc(C(=O)[O-])cc21.[Fe+2] | > 50 µM | > 32.6 µM | > 50 µM | > 50 µM | > 50 | > 50 µM | > 50 | > 50 µM |  | GI50 (DLD-1 colon): > 32.1 µM; GI50 (DMS 114 small cell lung): > 23.2 µM; GI50 (DMS 273 small cell lung): > 43.9 µM; GI50 (HOP-18 NSCLC): > 50 µM; GI50 (KM20L2 colon): > 50 µM; GI50 (LXFL 529 NSCLC): > 41.6 µM; GI50 (RXF-631 renal): > 50 µM; GI50 (SNB-78 CNS): > 50 µM |
| Cc1c(O)c(=O)ccn1C1OC(CO)C(O)C1O (stereo unspecified) | > 100 µM |  | > 100 µM |  | > 100 | > 100 µM |  | > 100 µM |  |  |
| NCCNCC(O)CO (stereo unspecified) |  |  |  |  |  |  |  |  | > 100 µM |  |
| COC(=O)C1=C(C(=O)OC)C23C=CC=CC24C(C(=O)OC)=C(C(=O)OC)C4C1C3 (stereo unspecified) | > 100 µM | > 100 µM | > 100 µM |  | > 100 | > 100 µM |  | > 100 µM |  |  |
| O=C1CC2CCCCC2=C1O (stereo unspecified) | > 100 µM | > 100 µM | > 100 µM |  |  | > 100 µM | > 100 | > 100 µM |  |  |
| COC(=O)c1ccccc1NC(=O)C(=O)CC(=O)c1ccccc1NC1=CC(=O)C(=O)c2ccccc21 | 30.4 µM | 5.33 µM | 25.8 µM | 29.6 µM | > 100 | 27.2 µM | > 80.8 | > 100 µM | 3.18 µM |  |
| O=C1c2cccnc2-c2nc(/C=C/c3ccccc3)cc3c2c1nc1ccccc13 |  |  |  |  |  |  |  |  | 4.15 µM | GI50 (MDA-N): 2.04 µM |
| CCCCCCCCCCCCCC/C(C(=O)OC)=C(/O)C(=O)OCC | > 100 µM | > 100 µM | > 100 µM | 73.7 µM |  | > 100 µM | 93.6 | > 100 µM |  |  |
| CO[C@H]1[C@H](O)[C@H](O[C@H]2CC[C@@]3(C)[C@H](CC[C@@H]4[C@@H]3CC[C@]3(C)[C@@H](C5=CC(=O)OC5)CC[C@]43O)C2)O[C@@H](C)[C@@H]1O | 0.00767 µM | 0.00335 µM | 0.00303 µM | 0.00382 µM | 0.0118 | 0.00658 µM and 0.0128 µM | > 100 |  | < 0.0001 µM | GI50 (RXF-631 renal): > 100 µM |
| CCCCn1c2c(c3ccccc3c1=O)C(=O)c1ccccc1-2 |  |  |  |  |  |  |  |  | > 100 µM |  |
| CC1=C(C(=O)Nc2ccccc2C)C(c2ccc([N+](=O)[O-])cc2)C(C(=O)Nc2ccccc2C)=C(C)N1 | > 100 µM | > 100 µM | > 100 µM | > 100 µM | > 100 | > 100 µM | > 100 |  |  |  |
| N#Cc1c[nH]n2ccnc12 |  |  |  |  |  |  |  |  | > 100 µM |  |
| CCOP(=O)(CC(=O)C1=C(O)C(CCCNC(=O)OC(C)(C)C)N(Cc2ccc(OC)c(OC)c2)C1=O)OCC (stereo unspecified) | > 100 µM | > 100 µM | > 100 µM | > 100 µM | > 100 | > 100 µM | > 100 |  |  |  |
